Measured values reported in US20210139497A1, “THIENOCYCLIC COMPOUND AND SYNTHESIS METHOD THEREFOR AND APPLICATION THEREOF” (SHANGHAI YUYAO BIOTECH LTD., priority 2017, published 2021).

Key:
breast cancer cells 4T1 = experiment: 4T1 subcutaneous tumor-bearing model, Balb/c mice; type: in vivo, mouse; conditions: female Balb/c mice, 75 mg/kg/day, 12-22 days, FIG. 4
Source text: (§1) Mouse colon cancer cells MC38, pancreatic cancer cells Pan02, breast cancer cells 4T1, prostate cancer cells RM-1 and colon cancer cells CT26 were cultivated to required amount. Then, cells at a cell density of 5×10^5-2×10^6 were subcutaneously injected into right side of the back of selected female C57BL/6 mice aging 6-8 weeks (MC38, Pan02), male C57BL/6 mice aging 6-8 weeks (RM-1), female Balb/c mice aging 6-8 weeks (4T1, CT26) and female Balb/c nude mice aging 6-8 weeks (CT26). The length and width of subcutaneous tumors in the backs of mice were measured using vernier calipers, and tumor volume(mm^3)=(length(mm)×width(mm)×width(mm)×n)/6 was calculated. […] The volume of subcutaneous tumors on the back of mice was measured and counted 2-4 times a week. Continuous administrated for 12-22 days and the changes of tumor volumes were recorded.

[1] = Cytotoxicity evaluation (CCK8), MOSJ; conditions: mouse, MOSJ osteosarcoma cells
Description: (§4) Cells with a density of 2000-8000 cells per 100 μL medium were seeded in 96-well plates (Falcon, CA) and incubated for 24 hours, then treated with drugs having different concentration gradient (at least 4 replicates per concentration) and incubated at 37° C. in 5% CO2 incubator for 72 hours. Then cell viability was detected by CCK8 method. That is to say, add 10 μL CCK8 to each well and incubate for 0.33-2 h, and the OD values are read by microplate reader at 450 nm. The inhibition rate on cell survival of compounds with each concentration were calculated.
(§5) Inhibition rate on cell survival=(OD value of groups with each concentration/OD
(§6) value of control group)×100%±standard deviation.
(§7) The IC50 of drugs were calculated using GraphPad Prism 5.0.

[2] = test system: mouse colon cancer cells CT26; experiment: CT26 subcutaneous tumor-bearing model, Balb/c mice; type: in vivo; conditions: female Balb/c mice, 75 mg/kg/day
Description: 2×10^6 mouse colon cancer cells CT26 were subcutaneously injected into right side of each mouse's back (female Balb/c mouse, 6-8 weeks). The length and width of subcutaneous tumors in the back of mice were measured using vernier calipers, and tumor volume (mm^3)=(length(mm)×width(mm)×width(mm)×n)/6 was calculated. […] The volume of subcutaneous tumors on the back of mice was measured and counted twice a week. Continuous administrated for a period of 14 days and the changes of tumor volumes were recorded.
as §1

[3] = biological target: T1, human prostaglandin E2 receptor EP1 subtype (Homo sapiens, UniProt P34995); experiment: Calcium flux of human prostaglandin E2 receptor EP1 subtype; type: cell-based; conditions: CHO-K1-Gα16 cells overexpressing human EP1, activated by prostaglandin E2; read-out: hEP1 Ca^2+ IC50
T1 construct: expressed in transfected cells; host or cells: CHO-K1-Gα16
T1 sequence (P34995 1-402): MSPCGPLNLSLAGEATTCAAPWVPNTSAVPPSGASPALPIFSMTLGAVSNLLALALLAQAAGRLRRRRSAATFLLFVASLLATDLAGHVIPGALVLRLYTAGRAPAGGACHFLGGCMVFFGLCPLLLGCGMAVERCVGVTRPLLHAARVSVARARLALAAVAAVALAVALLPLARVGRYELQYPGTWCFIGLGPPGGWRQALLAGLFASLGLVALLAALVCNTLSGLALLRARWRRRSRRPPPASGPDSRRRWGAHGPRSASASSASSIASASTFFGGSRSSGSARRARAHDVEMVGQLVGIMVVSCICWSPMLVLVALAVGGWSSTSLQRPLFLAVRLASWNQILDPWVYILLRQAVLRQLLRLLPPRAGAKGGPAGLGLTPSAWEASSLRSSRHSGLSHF
Description: (§2) CHO-K1-Gα16 cells at the logarithmic growth phase were transfected with human prostaglandin E2 Receptor subtypes EP1, EP2 or EP3 overexpressing vector by Lipofectamine 2000, then seeded in a 96-well plate (Falcon, CA) at a density of 20000 cells per 100 μL culture medium for overnight culture. On the second day, every single well were added with 100 μL calcium 5 detection reagents (Molecular Devices) and incubated in incubator at 37° C., 5% CO2 for 45 minutes. The compounds were diluted with HBSS detection buffer, then were added to 96-well plates. After 20 min incubation at room temperature in the dark, prostaglandin E2 at certain concentration was used to activate calcium flux of cells for detection (Flexstation 3, MD, CA).
(§3) Calculate the IC50 of the compounds of the invention in inhibiting the calcium flux of human EP1, EP2, and EP3 receptor (i.e. the concentration of drugs at which the intracellular Ca^2+ flux being inhibited by half after overexpressing human EP1, EP2, and EP3 receptors in CHO-K1-Gα16 cells). The IC50 of the drugs were calculated using GraphPad Prism 5.

[4] = biological target: T2, human prostaglandin E2 receptor EP2 subtype (Homo sapiens, UniProt P43116); experiment: Calcium flux of human prostaglandin E2 receptor EP2 subtype; type: cell-based; conditions: CHO-K1-Gα16 cells overexpressing human EP2, activated by prostaglandin E2; read-out: hEP2 Ca^2+ IC50
T2 construct: expressed in transfected cells; host or cells: CHO-K1-Gα16
T2 sequence (P43116 whole entry): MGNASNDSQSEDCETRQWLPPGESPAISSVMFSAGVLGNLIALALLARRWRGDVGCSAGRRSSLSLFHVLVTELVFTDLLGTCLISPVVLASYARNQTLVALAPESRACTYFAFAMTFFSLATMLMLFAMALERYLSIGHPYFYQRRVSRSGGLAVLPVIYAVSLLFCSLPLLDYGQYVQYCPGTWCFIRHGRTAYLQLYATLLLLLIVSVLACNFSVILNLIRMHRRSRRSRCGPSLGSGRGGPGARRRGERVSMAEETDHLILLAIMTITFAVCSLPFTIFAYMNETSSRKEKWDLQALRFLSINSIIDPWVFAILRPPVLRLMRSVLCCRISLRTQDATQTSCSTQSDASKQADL
Description: as §2, §3

[5] = biological target: T3, human prostaglandin E2 receptor EP3 subtype (Homo sapiens, UniProt P43115); experiment: Calcium flux of human prostaglandin E2 receptor EP3 subtype; type: cell-based; conditions: CHO-K1-Gα16 cells overexpressing human EP3, activated by prostaglandin E2; read-out: hEP3 Ca^2+ IC50
T3 construct: expressed in transfected cells; host or cells: CHO-K1-Gα16
T3 sequence (P43115 1-390): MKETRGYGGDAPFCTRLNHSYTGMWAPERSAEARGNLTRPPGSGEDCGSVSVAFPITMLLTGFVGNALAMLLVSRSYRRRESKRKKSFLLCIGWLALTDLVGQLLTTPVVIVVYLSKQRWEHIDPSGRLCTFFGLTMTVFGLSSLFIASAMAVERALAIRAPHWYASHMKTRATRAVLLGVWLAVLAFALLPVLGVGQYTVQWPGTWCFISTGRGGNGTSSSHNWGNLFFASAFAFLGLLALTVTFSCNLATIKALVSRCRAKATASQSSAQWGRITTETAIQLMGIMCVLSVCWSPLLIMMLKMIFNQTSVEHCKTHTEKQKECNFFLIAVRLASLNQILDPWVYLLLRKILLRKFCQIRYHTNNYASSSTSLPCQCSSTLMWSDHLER
Description: as §2, §3

[6] = Cytotoxicity evaluation (CCK8), PANC02; conditions: mouse, PANC02 pancreatic cancer cells
Description: as §4, §5, §6, §7

[7] = Cytotoxicity evaluation (CCK8), CT26; conditions: mouse, CT26 intestinal cancer cells
Description: as §4, §5, §6, §7

[8] = test system: mouse colon cancer cells MC38; experiment: MC38 subcutaneous tumor-bearing model, C57BL/6 mice; type: in vivo; conditions: female C57BL/6 mice, 75 mg/kg/day, 12-22 days, FIG. 4
Source text: as §1

colon cancer cells CT26 = experiment: CT26 subcutaneous tumor-bearing model, Balb/c nude mice; type: in vivo, mouse; conditions: female Balb/c nude mice, 75 mg/kg/day
Source text: as §1

[9] = test system: prostate cancer cells RM-1; experiment: RM-1 subcutaneous tumor-bearing model, C57BL/6 mice; type: in vivo, mouse; conditions: male C57BL/6 mice, 75 mg/kg/day, 12-22 days, FIG. 4
Source text: as §1

[10] = test system: pancreatic cancer cells Pan02; experiment: Pan02 subcutaneous tumor-bearing model, C57BL/6 mice; type: in vivo, mouse; conditions: female C57BL/6 mice, 75 mg/kg/day, 12-22 days, FIG. 4
Source text: as §1

[11] = Cytotoxicity evaluation (CCK8), LLC; conditions: mouse, LLC lung cancer cells
Description: as §4, §5, §6, §7

[12] = Cytotoxicity evaluation (CCK8), EMT-6; conditions: mouse, EMT-6 breast cancer cells
Description: as §4, §5, §6, §7

[13] = Cytotoxicity evaluation (CCK8), 293; conditions: human

With `C[C@H](NC(=O)c1c(Cc2ccc(F)cc2)sc2c1CCOC2)c1ccc(C(=O)O)cc1` [YJ114, (S)-4-(1-(2-(4-fluorobenzyl)-5,7-dihydro-4H-thieno[2,3-c]pyran-3-carboxamido)ethyl)benzoic Acid] the “Inhibition of growth of breast cancer cells 4T1 in subcutaneous tumor-bearing mice” value (breast cancer cells 4T1) was “can efficiently inhibit the growth”, the IC50 at 72 h [1] was over 100 µM and the “Inhibition of growth of colon cancer cells CT26 in subcutaneous tumor-bearing mice” value ([2]; 12 to 22-day administration (Example 6)) was “can efficiently inhibit the growth”. The “Inhibitory effect on growth of subcutaneous CT26 colon cancer” value ([2]; 14 days, vs negative control, FIG. 3) was “able to suppress the growth”, the IC50 [3] was over 10 µM and the IC50 [4] was over 10 µM. The IC50 [5] was over 10 µM, the IC50 at 72 h [6] was over 100 µM and the IC50 at 72 h [7] was over 100 µM. The “Inhibition of growth of colon cancer cells MC38 in subcutaneous tumor-bearing mice” value [8] was “can efficiently inhibit the growth”, the “Inhibition of CT26 tumor growth in Balb/c nude mice with immune system deficiency” value (colon cancer cells CT26) was “can not inhibit the tumor growth” and the “Inhibition of growth of prostate cancer cells RM-1 in subcutaneous tumor-bearing mice” value [9] was “can efficiently inhibit the growth”. For the same compound, the “Inhibition of growth of pancreatic cancer cells Pan02 in subcutaneous tumor-bearing mice” value [10] was “can efficiently inhibit the growth”, the IC50 at 72 h [11] was over 100 µM and the IC50 at 72 h [12] was over 100 µM. For the same compound, the IC50 at 72 h [13] was over 100 µM.
